Results as given in patent US20250339569A1, “CARBONIC ANHYDRASE IX LIGANDS” (priority 2021, published 2025).
Starred links: 1 amine or outer side, 2 acyl side, 3 side chain; linkers in the order of their positions; H or OH if unused. Positions of bridges follow the written chain, without caps; N, C: chain ends. Non-standard residues stand in square brackets, D forms with d. Residues, ends and D or L forms follow the SMILES beside them. *: point of attachment. X38 = O=C(Cc1cc(=O)[nH][nH]c1=O)Nc1cccc(C[C@H](N[*:1])C(=O)[*:2])c1; X30 = Cn1ncc(C(=O)Nc2cccc(C[C@H](N[*:1])C(=O)[*:2])c2)c1C#N; X34 = O=C(CCc1nc[nH]n1)Nc1cccc(C[C@H](N[*:1])C(=O)[*:2])c1; DOTA = O=C(O)CN1CCN(CC(=O)O)CCN(CC(=O)*)CCN(CC(=O)O)CC1; X7 = O=C([C@H](Cc1cccc(N[*:3])c1)N[*:1])[*:2]; Phe(4-NH2) = Nc1ccc(C[C@H](N)C(=O)O)cc1; mXylylene = c1cc(C[*:1])cc(C[*:2])c1; NH(4-Cl-benzyl) = Clc1ccc(CN*)cc1; X13 = O=C1NC2NC(=O)N(CC(=O)*)C2N1; X2 = O=C(CN1CCC(N[*:1])CC1)[*:2]; Suc = O=C(CCC(=O)[*:2])[*:1]

Columns and labels:
[1] = biological target: T1, human carbonic anhydrase IX (hCAIX-Fc) (Homo sapiens, UniProt Q16790); assay: Surface plasmon resonance assay with hCAIX-Fc; format: binding; details: 25° C.; for t1/2 category (activity): SPR dissociation half-life, hCAIX-Fc; for Kd: SPR, hCAIX-Fc captured, read-out: pKD category (activity) (converted)
T1 construct: purchased SinoBliological (Sino Biological) 10107-H02H

[2] = biological target: T2, CAIX-expressing human HT-29 colorectal cancer cells (Homo sapiens, UniProt Q16790); assay: FACS binding assay (IC50 determination, competition with tracer 3BP-2776 or 3BP-4149); details: FACS binding assay, HT-29 cells, competition with tracer 3BP-4149 (3 nM, Cy5-labeled), 4° C., 1 hour; read-out: pIC50 category (activity) (converted)
T2 construct: CAIX-expressing human HT-29 colorectal cancer cells; host or cells: HT-29 human colorectal cancer cells
Procedure, shortened: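 HT-29 cells in FACS buffer (PBS, 1% FCS) at 500.000 cells/ml were exposed to compounds competing with a labelled tracer, with biotinylated compounds detected by 1 μg/mL APC-streptavidin for 30 min on ice. APC/Cy5 median fluorescence was read by flow cytometry and IC50 derived by 4PL fit.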

Row | SMILES | t1/2 category (activity) [1] | Kd [1] | IC50 [2]
1 | CC(C)C[C@@H]1NC(=O)[C@H](Cc2cccc(NC(=O)c3cnn(C)c3C#N)c2)NC(=O)[C@H](CC(=O)O)NC(=O)[C@H]2CCCN2C(=O)[C@H](CCC(=O)O)NC(=O)[C@@H](NC(=O)[C@H](Cc2ccc(O)cc2)NC(=O)[C@@H](NC(=O)CN2CCC(NC(=O)CN3CCN(CC(=O)O)CCN(CC(=O)O)CCN(CC(=O)O)CC3)CC2)C(C)C)CSCc2cccc(c2)CSC[C@@H](C(N)=O)NC(=O)[C@H](CO)NC(=O)[C@H](Cc2c[nH]c3ccccc23)NC(=O)[C@H]([C@@H](C)O)NC1=O [3BP-4305] ({DOTA}-[X2]VYCE[dP]D[X30]LTWSC-NH2; linker 4-13 via mXylylene) | D (t1/2≤2.0 minutes) | 10 to 79.4 nM | 10 to 79.4 nM
2 | CC(C)C[C@@H]1NC(=O)[C@H](Cc2cccc(NC(=O)Cc3cc(=O)[nH][nH]c3=O)c2)NC(=O)[C@H](CC(=O)O)NC(=O)[C@H]2CCCN2C(=O)[C@H](CCC(=O)O)NC(=O)[C@@H](NC(=O)[C@H](Cc2ccc(O)cc2)NC(=O)[C@@H](NC(=O)CN2CCC(NC(=O)CN3CCN(CC(=O)O)CCN(CC(=O)O)CCN(CC(=O)O)CC3)CC2)C(C)C)CSCc2cccc(c2)CSC[C@@H](C(N)=O)NC(=O)[C@H](CO)NC(=O)[C@H](Cc2c[nH]c3ccccc23)NC(=O)[C@H]([C@@H](C)O)NC1=O [3BP-4322] ({DOTA}-[X2]VYCE[dP]D[X38]LTWSC-NH2; linker 4-13 via mXylylene) | B (t1/2 between 5.1 and 15.0 minutes) | < 10 nM | 10 to 79.4 nM
3 | CC(C)C[C@@H]1NC(=O)[C@H](Cc2cccc(NC(=O)CCc3nc[nH]n3)c2)NC(=O)[C@H](CC(=O)O)NC(=O)[C@H]2CCCN2C(=O)[C@H](CCC(=O)O)NC(=O)[C@@H](NC(=O)[C@H](Cc2ccc(O)cc2)NC(=O)[C@@H](NC(=O)CN2CCC(NC(=O)CN3CCN(CC(=O)O)CCN(CC(=O)O)CCN(CC(=O)O)CC3)CC2)C(C)C)CSCc2cccc(c2)CSC[C@@H](C(N)=O)NC(=O)[C@H](CO)NC(=O)[C@H](Cc2c[nH]c3ccccc23)NC(=O)[C@H]([C@@H](C)O)NC1=O [3BP-4324] ({DOTA}-[X2]VYCE[dP]D[X34]LTWSC-NH2; linker 4-13 via mXylylene) | A (t1/2>15.0 minutes) | < 10 nM | 10 to 79.4 nM
4 | CC(C)C[C@@H]1NC(=O)[C@H](Cc2c[nH]c3ccccc23)NC(=O)[C@H](CCC(=O)NCc2ccc(Cl)cc2)NC(=O)[C@H]2CCCN2C(=O)[C@H](CCC(=O)O)NC(=O)[C@@H](NC(=O)[C@H](Cc2ccc(O)cc2)NC(=O)[C@@H](NC(=O)CN2CCC(NC(=O)CN3CCN(CC(=O)O)CCN(CC(=O)O)CCN(CC(=O)O)CC3)CC2)C(C)C)CSCc2cccc(c2)CSC[C@@H](C(N)=O)NC(=O)[C@H](CO)NC(=O)[C@H](Cc2c[nH]c3ccccc23)NC(=O)[C@H]([C@@H](C)O)NC1=O [3BP-4334] ({DOTA}-[X2]VYCE[dP]E(NH(4-Cl-benzyl))WLTWSC-NH2; linker 4-13 via mXylylene) | A (t1/2>15.0 minutes) | < 10 nM | 10 to 79.4 nM
5 | CC(C)C[C@@H]1NC(=O)[C@H](Cc2cccc(NC(=O)CN3C(=O)NC4NC(=O)NC43)c2)NC(=O)[C@H](CC(=O)O)NC(=O)[C@H]2CCCN2C(=O)[C@H](CCC(=O)O)NC(=O)[C@@H](NC(=O)[C@H](Cc2ccc(O)cc2)NC(=O)[C@@H](NC(=O)CN2CCC(NC(=O)CN3CCN(CC(=O)O)CCN(CC(=O)O)CCN(CC(=O)O)CC3)CC2)C(C)C)CSCc2cccc(c2)CSC[C@@H](C(N)=O)NC(=O)[C@H](CO)NC(=O)[C@H](Cc2c[nH]c3ccccc23)NC(=O)[C@H]([C@@H](C)O)NC1=O (stereo partly drawn) [3BP-4341] ({DOTA}-[X2]VYCE[dP]D[X7](X13)LTWSC-NH2; linker 4-13 via mXylylene) | C (t1/2 between 2.1 and 5.0 minutes) | < 10 nM | 10 to 79.4 nM
6 | CC(C)C[C@@H]1NC(=O)[C@H](Cc2ccc(NC(=O)CCC(=O)O)cc2)NC(=O)[C@H](CC(=O)O)NC(=O)[C@H]2CCCN2C(=O)[C@H](CCC(=O)O)NC(=O)[C@@H](NC(=O)[C@H](Cc2ccc(O)cc2)NC(=O)[C@@H](NC(=O)CN2CCC(NC(=O)CN3CCN(CC(=O)O)CCN(CC(=O)O)CCN(CC(=O)O)CC3)CC2)C(C)C)CSCc2cccc(c2)CSC[C@@H](C(N)=O)NC(=O)[C@H](CO)NC(=O)[C@H](Cc2c[nH]c3ccccc23)NC(=O)[C@H]([C@@H](C)O)NC1=O [3BP-4356] ({DOTA}-[X2]VYCE[dP]D[Phe(4-NH2)](Suc)LTWSC-NH2; linker 4-13 via mXylylene) | D (t1/2≤2.0 minutes) | 10 to 79.4 nM | 10 to 79.4 nM
